Measured values from ChEMBL document CHEMBL5143671, “Discovery of (R)-(3-fluoropyrrolidin-1-yl)(6-((5-(trifluoromethyl)pyridin-2-yl)oxy)quinolin-2-yl)methanone (ABBV-318) and analogs as small molecule Nav1.7/ Nav1.8 blockers for the treatment of pain” (Bioorg Med Chem, 2022).
In brackets after ≈: the same amount, converted by molar mass.

Assays:
[1] = in vitro; conditions: dog, MDCK
[2] = physchem; conditions: octanol/water
[3] = target: Voltage-gated inwardly rectifying potassium channel KCNH2 (Homo sapiens, UniProt Q12809);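 note: hERG channel blockade measured by electrophysiology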
[4] = in vivo; conditions: Sprague-Dawley, rat, iv
[5] = physchem; conditions: phosphate buffer
[6] = in vitro; conditions: PAMPA
[7] = target: Sodium channel protein type 5 subunit alpha (Homo sapiens, UniProt Q14524)
[8] = in vivo; conditions: Sprague-Dawley, rat, po
[9] = in vivo; conditions: Sprague-Dawley, rat, po; remark: listed apart in the source
[10] = rat, in vivo, po
[11] = test system: MDR1; experiment: in vitro; conditions: dog, MDCK-MDR1
[12] = rat, microsomes, 0.5 h, 0.5 µM
[13] = human, microsomes, 0.5 h, 0.5 µM
[14] = Drug concentration in brain of Sprague-Dawley rat model of L5/L6 spinal nerve ligation-induced neuropathic pain at 100 mg/kg, po by LC/MS analysis; type: ADME, organism-based; conditions: in vivo
[15] = test system: Rattus norvegicus; experiment: Antiallodynic activity in Sprague-Dawley rat model of L5/L6 spinal nerve ligation-induced neuropathic pain assessed as maximal possible effect at 30 mg/kg, po; type: functional
[16] = Drug concentration in brain of Sprague-Dawley rat model of L5/L6 spinal nerve ligation-induced neuropathic pain at 30 mg/kg, po by LC/MS analysis; type: ADME, organism-based; conditions: in vivo
[17] = Drug concentration in plasma of Sprague-Dawley rat model of L5/L6 spinal nerve ligation-induced neuropathic pain at 100 mg/kg, po by LC/MS analysis; type: ADME, organism-based; conditions: in vivo
[18] = Drug concentration in plasma of Sprague-Dawley rat model of L5/L6 spinal nerve ligation-induced neuropathic pain at 30 mg/kg, po by LC/MS analysis; type: ADME, organism-based; conditions: in vivo
[19] = Ratio of free drug concentration in brain to plasma of rat; type: ADME, cell-free; conditions: brain and plasma
[20] = test system: Rattus norvegicus; experiment: Antiallodynic activity in Sprague-Dawley rat model of L5/L6 spinal nerve ligation-induced neuropathic pain assessed as maximal possible effect at 100 mg/kg, po; type: functional
[21] = target: Sodium channel protein type 2 subunit alpha (Homo sapiens, UniProt Q99250); experiment: Inhibition of recombinant human Nav1.2 expressed in HEK293 cells incubated for 3 mins by FRET based membrane potential assay; type: cell-based
[22] = test system: Rattus norvegicus; experiment: Antiallodynic activity in Sprague-Dawley rat model of L5/L6 spinal nerve ligation-induced neuropathic pain assessed as maximal possible effect at 10 mg/kg, po; type: functional
[23] = target: Sodium channel protein type 9 subunit alpha (Homo sapiens, UniProt Q15858)
[24] = Drug concentration in plasma of Sprague-Dawley rat model of L5/L6 spinal nerve ligation-induced neuropathic pain at 10 mg/kg, po by LC/MS analysis; type: ADME, organism-based; conditions: in vivo
[25] = target: Sodium channel protein type 10 subunit alpha (Homo sapiens, UniProt Q9Y5Y9); experiment: Inhibition of human Nav1.8 by FRET based membrane potential assay
[26] = Drug concentration in brain of Sprague-Dawley rat model of L5/L6 spinal nerve ligation-induced neuropathic pain at 10 mg/kg, po by LC/MS analysis; type: ADME, organism-based; conditions: in vivo
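Throughout, for logD: distribution coefficient quantified using high-throughput LC-MS.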
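Throughout, for solubility: determined using a high-throughput solubility method.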

Chain of Voltage-gated inwardly rectifying potassium channel KCNH2 (Q12809 whole entry): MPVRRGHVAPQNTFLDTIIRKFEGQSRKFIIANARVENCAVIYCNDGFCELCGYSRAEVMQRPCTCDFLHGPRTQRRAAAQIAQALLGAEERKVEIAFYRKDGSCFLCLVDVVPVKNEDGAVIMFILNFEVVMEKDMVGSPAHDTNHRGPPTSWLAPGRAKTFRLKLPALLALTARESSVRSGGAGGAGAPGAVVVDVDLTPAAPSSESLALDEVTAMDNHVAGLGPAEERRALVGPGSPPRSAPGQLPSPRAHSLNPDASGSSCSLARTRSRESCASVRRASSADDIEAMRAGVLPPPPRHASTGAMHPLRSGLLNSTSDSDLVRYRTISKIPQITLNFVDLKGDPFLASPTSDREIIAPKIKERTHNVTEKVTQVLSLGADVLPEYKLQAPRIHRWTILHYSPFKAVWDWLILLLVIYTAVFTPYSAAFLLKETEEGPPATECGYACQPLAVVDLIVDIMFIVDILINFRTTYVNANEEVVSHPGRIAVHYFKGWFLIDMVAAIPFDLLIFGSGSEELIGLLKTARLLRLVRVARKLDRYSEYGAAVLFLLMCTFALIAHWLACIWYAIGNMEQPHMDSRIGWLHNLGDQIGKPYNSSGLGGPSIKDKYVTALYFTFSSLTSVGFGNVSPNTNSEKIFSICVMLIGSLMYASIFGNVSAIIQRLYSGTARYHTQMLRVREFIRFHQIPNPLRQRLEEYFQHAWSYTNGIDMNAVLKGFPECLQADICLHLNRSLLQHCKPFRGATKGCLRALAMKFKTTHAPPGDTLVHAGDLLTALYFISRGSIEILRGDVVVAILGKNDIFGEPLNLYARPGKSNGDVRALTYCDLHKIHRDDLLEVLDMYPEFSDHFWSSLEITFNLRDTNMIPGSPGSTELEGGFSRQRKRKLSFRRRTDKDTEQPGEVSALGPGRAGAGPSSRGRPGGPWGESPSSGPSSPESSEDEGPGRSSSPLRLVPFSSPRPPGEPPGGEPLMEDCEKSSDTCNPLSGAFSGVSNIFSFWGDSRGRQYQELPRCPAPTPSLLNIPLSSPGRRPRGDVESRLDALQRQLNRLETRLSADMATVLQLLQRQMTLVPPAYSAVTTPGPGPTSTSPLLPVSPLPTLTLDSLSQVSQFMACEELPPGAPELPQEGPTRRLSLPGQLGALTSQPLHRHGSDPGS
Chain of Sodium channel protein type 5 subunit alpha (Q14524 whole entry): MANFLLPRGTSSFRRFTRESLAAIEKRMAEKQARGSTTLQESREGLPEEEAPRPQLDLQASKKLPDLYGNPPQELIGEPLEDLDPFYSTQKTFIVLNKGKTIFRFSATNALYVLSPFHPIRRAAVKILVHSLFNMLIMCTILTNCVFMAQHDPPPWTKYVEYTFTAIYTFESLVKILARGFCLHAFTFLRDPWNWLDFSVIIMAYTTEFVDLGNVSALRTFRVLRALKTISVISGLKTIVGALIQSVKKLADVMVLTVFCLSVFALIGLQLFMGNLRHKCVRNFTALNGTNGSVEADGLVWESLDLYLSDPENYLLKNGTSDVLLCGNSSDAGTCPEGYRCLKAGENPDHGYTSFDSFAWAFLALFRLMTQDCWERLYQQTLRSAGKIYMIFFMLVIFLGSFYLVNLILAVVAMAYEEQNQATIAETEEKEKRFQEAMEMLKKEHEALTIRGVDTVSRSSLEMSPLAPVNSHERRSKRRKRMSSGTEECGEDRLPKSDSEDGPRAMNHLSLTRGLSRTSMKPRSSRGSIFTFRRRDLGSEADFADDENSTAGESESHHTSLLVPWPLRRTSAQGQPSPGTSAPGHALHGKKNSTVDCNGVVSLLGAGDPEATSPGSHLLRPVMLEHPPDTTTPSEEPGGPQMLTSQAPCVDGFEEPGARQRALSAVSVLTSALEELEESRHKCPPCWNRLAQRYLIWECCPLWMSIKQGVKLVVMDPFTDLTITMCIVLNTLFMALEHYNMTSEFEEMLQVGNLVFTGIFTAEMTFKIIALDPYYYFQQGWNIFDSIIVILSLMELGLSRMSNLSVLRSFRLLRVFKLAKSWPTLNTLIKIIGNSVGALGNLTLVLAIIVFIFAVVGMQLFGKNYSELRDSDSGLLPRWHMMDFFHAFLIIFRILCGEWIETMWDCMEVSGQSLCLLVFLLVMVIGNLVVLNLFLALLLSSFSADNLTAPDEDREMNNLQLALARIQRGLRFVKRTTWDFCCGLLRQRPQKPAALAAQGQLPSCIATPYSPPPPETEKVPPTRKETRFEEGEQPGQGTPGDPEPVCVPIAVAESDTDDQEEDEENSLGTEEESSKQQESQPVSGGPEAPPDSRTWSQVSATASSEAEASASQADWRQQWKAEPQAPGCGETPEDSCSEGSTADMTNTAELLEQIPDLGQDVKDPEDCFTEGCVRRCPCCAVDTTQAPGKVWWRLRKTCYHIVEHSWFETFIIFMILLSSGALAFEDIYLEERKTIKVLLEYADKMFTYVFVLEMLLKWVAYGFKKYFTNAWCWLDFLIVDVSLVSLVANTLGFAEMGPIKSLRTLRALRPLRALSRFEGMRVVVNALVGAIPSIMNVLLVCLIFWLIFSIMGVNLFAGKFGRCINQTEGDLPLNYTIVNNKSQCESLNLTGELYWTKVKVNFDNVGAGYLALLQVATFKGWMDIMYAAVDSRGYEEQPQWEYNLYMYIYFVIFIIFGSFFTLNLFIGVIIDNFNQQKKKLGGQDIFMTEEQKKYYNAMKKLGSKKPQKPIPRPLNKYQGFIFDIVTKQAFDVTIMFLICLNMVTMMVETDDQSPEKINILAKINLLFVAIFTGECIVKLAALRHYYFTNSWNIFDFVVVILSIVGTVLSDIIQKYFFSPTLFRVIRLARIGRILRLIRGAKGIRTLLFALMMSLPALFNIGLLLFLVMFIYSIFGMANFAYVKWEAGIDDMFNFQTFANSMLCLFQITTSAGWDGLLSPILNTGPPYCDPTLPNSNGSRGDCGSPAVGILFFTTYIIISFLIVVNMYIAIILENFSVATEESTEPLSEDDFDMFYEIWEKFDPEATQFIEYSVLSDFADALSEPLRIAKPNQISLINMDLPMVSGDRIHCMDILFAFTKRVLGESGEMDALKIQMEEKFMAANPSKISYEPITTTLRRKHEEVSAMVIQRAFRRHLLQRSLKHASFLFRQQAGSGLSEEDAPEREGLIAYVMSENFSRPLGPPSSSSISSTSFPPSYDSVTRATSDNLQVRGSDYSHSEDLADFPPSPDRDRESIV
Chain of Sodium channel protein type 2 subunit alpha (Q99250 whole entry): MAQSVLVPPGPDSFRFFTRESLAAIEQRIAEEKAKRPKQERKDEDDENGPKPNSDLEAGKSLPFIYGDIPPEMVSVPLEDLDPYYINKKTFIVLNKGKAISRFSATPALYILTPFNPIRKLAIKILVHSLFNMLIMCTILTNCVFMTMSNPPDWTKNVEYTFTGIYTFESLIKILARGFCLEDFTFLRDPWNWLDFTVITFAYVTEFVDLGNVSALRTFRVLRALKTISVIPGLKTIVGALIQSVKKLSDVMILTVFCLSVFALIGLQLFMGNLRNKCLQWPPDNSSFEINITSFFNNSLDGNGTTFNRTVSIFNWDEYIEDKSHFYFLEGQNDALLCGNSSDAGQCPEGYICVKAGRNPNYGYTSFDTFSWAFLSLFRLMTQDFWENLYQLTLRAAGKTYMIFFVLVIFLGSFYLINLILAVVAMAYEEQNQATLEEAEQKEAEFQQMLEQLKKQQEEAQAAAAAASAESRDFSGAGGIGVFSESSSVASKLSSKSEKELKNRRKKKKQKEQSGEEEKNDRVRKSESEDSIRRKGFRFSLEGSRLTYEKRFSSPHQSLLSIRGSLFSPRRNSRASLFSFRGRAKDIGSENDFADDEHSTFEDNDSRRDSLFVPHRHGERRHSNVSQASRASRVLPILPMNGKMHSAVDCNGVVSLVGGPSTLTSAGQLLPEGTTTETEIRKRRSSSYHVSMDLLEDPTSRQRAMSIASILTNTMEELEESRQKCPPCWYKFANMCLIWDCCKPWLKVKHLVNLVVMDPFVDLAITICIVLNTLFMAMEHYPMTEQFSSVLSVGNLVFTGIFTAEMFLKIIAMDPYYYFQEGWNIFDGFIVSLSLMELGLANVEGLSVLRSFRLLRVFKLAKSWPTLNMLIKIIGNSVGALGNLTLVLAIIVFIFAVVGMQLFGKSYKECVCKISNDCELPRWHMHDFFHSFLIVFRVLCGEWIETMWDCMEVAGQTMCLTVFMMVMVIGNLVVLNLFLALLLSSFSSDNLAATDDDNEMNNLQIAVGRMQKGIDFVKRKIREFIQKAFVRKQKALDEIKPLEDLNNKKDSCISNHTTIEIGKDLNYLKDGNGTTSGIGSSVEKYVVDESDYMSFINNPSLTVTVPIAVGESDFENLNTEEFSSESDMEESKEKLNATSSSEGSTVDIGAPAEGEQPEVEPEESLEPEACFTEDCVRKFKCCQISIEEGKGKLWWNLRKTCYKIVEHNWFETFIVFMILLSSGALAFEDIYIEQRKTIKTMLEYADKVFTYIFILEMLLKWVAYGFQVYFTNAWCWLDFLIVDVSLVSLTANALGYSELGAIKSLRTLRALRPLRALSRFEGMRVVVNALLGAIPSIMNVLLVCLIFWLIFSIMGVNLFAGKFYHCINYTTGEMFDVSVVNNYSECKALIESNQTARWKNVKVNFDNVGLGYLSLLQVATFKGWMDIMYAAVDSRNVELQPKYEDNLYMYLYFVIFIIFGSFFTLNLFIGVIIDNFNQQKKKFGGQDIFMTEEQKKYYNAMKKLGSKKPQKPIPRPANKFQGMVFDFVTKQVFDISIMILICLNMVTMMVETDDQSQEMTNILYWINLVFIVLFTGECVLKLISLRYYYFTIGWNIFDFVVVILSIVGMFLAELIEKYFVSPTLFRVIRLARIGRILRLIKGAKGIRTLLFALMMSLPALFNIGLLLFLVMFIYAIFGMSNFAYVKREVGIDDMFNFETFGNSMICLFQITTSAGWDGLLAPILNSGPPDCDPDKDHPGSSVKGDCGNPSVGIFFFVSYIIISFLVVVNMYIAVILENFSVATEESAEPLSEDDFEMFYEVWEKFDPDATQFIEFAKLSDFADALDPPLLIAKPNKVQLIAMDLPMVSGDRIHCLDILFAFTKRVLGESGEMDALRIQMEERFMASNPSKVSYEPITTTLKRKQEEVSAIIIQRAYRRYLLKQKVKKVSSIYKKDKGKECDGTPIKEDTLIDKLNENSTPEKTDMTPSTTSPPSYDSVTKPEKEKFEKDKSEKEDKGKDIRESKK

SMILES | Papp [1] | logD [2] | IC50 [3] | solubility [5] | Papp [6] | IC50 [7] | CLH [12] | CLH [13] | other results
O=C(c1ccc2cc(Oc3cccc(C(F)(F)F)n3)ccc2n1)N1CCNCC1 | 52.2 ×10⁻⁶ cm/s | 3 | 12.8 µM | 200 µM (≈ 80.5 µg/mL) | – | – | – | – | clearance [4]: 83.3 mL/min/kg
O=C(N[C@@H]1CCOC1=O)c1ccc2cc(Oc3ccc(C(F)(F)F)cn3)ccc2n1 | – | – | – | 5 µM (≈ 2.09 µg/mL) | 32.7 ×10⁻⁶ cm/s | 33 µM | – | – | –
O=C(c1ccc2cc(Oc3ccc(C(F)(F)F)cn3)ccc2n1)N1CCCC1 | – | – | – | – | – | 33 µM | – | – | –
CN1CCN(C(=O)c2ccc3cc(Oc4ccccn4)ccc3n2)CC1 | 8 ×10⁻⁶ cm/s | 1.1 | 16.8 µM | 200 µM (≈ 69.7 µg/mL) | – | – | – | – | clearance [4]: 70 mL/min/kg
O=C(c1ccc2cc(Oc3ccc(C(F)(F)F)cn3)ccc2n1)N1CC[C@H](F)C1 | – | – | – | 55 µM (≈ 22.3 µg/mL) | 31.6 ×10⁻⁶ cm/s | 33 µM | – | – | bioavailability [8]: 104%; clearance [4]: 12.8 mL/min/kg; half-life [9]: 3.67 h; Vdss [10]: 6.47 L/kg
O=C(c1ccc2cc(Oc3ncc(C(F)(F)F)cn3)ccc2n1)N1CCNCC1 | – | 2.1 | – | 138 µM (≈ 55.7 µg/mL) | 1.5 ×10⁻⁶ cm/s | – | – | – | –
O=C(c1ccc2cc(Oc3ccc(OC(F)(F)F)cn3)ccc2n1)N1CCNCC1 | – | 3.4 | 12.8 µM | 150 µM (≈ 62.8 µg/mL) | 5.1 ×10⁻⁶ cm/s | – | – | – | bioavailability [8]: 92%; half-life [9]: 12.6 h
O=C(c1ccc2cc(Oc3ccc(C(F)(F)F)cc3)ccc2n1)N1CCNCC1 | – | 4 | 5.91 µM | 140 µM (≈ 56.2 µg/mL) | 2.1 ×10⁻⁶ cm/s | – | – | – | efflux ratio [11]: 3.7
O=C(c1ccc2cc(Oc3cnc(C(F)(F)F)cn3)ccc2n1)N1CCNCC1 | – | 2.7 | 18.6 µM | 149 µM (≈ 60.1 µg/mL) | 3.8 ×10⁻⁶ cm/s | – | – | – | efflux ratio [11]: 16.1
O=C(N[C@H]1C[C@@H](O)C1)c1ccc2cc(Oc3ccc(C(F)(F)F)cn3)ccc2n1 | – | – | – | 10 µM (≈ 4.03 µg/mL) | 19.5 ×10⁻⁶ cm/s | 33 µM | – | – | bioavailability [8]: 23%; clearance [4]: 60.3 mL/min/kg
O=C(c1ccc2cc(Oc3ccc(C(F)(F)F)cn3)ccc2n1)N1CC(F)(F)C1 | – | – | – | 5 µM (≈ 2.05 µg/mL) | 3.04 ×10⁻⁶ cm/s | 10.2 µM | – | – | –
O=C(c1ccc2cc(Oc3ccc(C(F)(F)F)cn3)ccc2n1)N1CCC1 | – | – | – | – | – | 33 µM | – | – | –
O=C(c1ccc2cc(Oc3ccc(F)cn3)ccc2n1)N1CCNCC1 | – | – | 17 µM | 150 µM (≈ 52.9 µg/mL) | – | – | – | – | –
O=C(NC1CC(F)C1)c1ccc2cc(Oc3ccc(C(F)(F)F)cn3)ccc2n1 (stereo not drawn) | – | – | – | 5 µM (≈ 2.03 µg/mL) | 16.7 ×10⁻⁶ cm/s | 33 µM | – | – | –
O=C(c1ccc2cc(Oc3ccc(C(F)(F)F)cn3)ccc2n1)N1CCNC(C(F)(F)F)C1 (stereo not drawn) | – | – | – | 78 µM (≈ 36.7 µg/mL) | 24.3 ×10⁻⁶ cm/s | 33 µM | – | – | bioavailability [8]: 106%; clearance [4]: 40.5 mL/min/kg; half-life [9]: 3.17 h; Vdss [10]: 9.23 L/kg
CS(=O)(=O)C1CN(C(=O)c2ccc3cc(Oc4ccc(C(F)(F)F)cn4)ccc3n2)C1 | – | – | – | 18 µM (≈ 8.13 µg/mL) | 21.5 ×10⁻⁶ cm/s | – | – | – | bioavailability [8]: 126%; half-life [9]: 3.4 h
O=C(NC1CCC1)c1ccc2cc(Oc3ccc(C(F)(F)F)cn3)ccc2n1 | – | – | – | 5 µM (≈ 1.94 µg/mL) | 3.4 ×10⁻⁶ cm/s | 31.3 µM | – | – | –
O=C(c1ccc2cc(Oc3cc(C(F)(F)F)ccn3)ccc2n1)N1CCNCC1 | 49 ×10⁻⁶ cm/s | 3.4 | 7.3 µM | 200 µM (≈ 80.5 µg/mL) | – | – | – | – | bioavailability [8]: 91%; clearance [4]: 115 mL/min/kg
CC(=O)c1ccc(Oc2ccc3nc(C(=O)N4CCNCC4)ccc3c2)cc1 | 19.7 ×10⁻⁶ cm/s | 3.1 | 23.6 µM | 145 µM (≈ 54.4 µg/mL) | – | – | – | – | bioavailability [8]: 54%; half-life [9]: 3.3 h
N#Cc1ccc(Oc2ccc3nc(C(=O)N4CCNCC4)ccc3c2)cc1 | 0.4 ×10⁻⁶ cm/s | 2.6 | 5.2 µM | 194 µM (≈ 69.5 µg/mL) | – | – | – | – | bioavailability [8]: 89%; clearance [4]: < 33.3 mL/min/kg

SMILES | Papp [1] | logD [2] | IC50 [3] | solubility [5] | Papp [6] | IC50 [7] | CLH [12] | CLH [13] | other results
O=C(NC1CCOC1)c1ccc2cc(Oc3ccc(C(F)(F)F)cn3)ccc2n1 (stereo not drawn) | – | – | – | – | – | 33 µM | – | – | –
O=C(NC1CC(F)(F)C1)c1ccc2cc(Oc3ccc(C(F)(F)F)cn3)ccc2n1 | – | – | – | 5 µM (≈ 2.12 µg/mL) | 12.1 ×10⁻⁶ cm/s | 33 µM | – | – | bioavailability [8]: 82%
O=C(c1ccc2cc(Oc3ccc(C(F)(F)F)cn3)ccc2n1)N1CCN(CC(F)(F)F)CC1 | 24.6 ×10⁻⁶ cm/s | – | – | 46 µM (≈ 22.3 µg/mL) | – | 33 µM | – | – | –
O=C(c1ccc2cc(Oc3ccc(S(=O)(=O)C(F)(F)F)cc3)ccc2n1)N1CCNCC1 | – | 3.8 | 4.27 µM | 150 µM (≈ 69.8 µg/mL) | 0.8 ×10⁻⁶ cm/s | – | – | – | efflux ratio [11]: 45.5
N#Cc1ccc(COc2ccc3nc(C(=O)N4CCNCC4)ccc3c2)cc1 | – | 2.9 | 5.61 µM | 143 µM (≈ 53.3 µg/mL) | 2.7 ×10⁻⁶ cm/s | – | – | – | efflux ratio [11]: 23.4
N#Cc1ccc(Oc2ccc3nc(OCC(=O)N4CCOCC4)ccc3c2)cc1 | 30.1 ×10⁻⁶ cm/s | 3.4 | – | – | – | – | < 50 mL/min/kg | 50 mL/min/kg | –
NC(=O)CNC(=O)COc1ccc2cc(Oc3ccccn3)ccc2n1 | 8.7 ×10⁻⁶ cm/s | 2.2 | 30 µM | 57.5 µM (≈ 20.3 µg/mL) | – | – | < 45 mL/min/kg | 33 mL/min/kg | –
N#Cc1ccc(-c2ccc3c(ccc(=O)n3CC(=O)N3CCCCC3)c2)cc1 | – | – | 17 µM | – | 16.1 ×10⁻⁶ cm/s | – | 100 mL/min/kg | 33 mL/min/kg | –
O=C(COc1ccc2cc(Oc3ccccn3)ccc2n1)N1CCNCC1 | 29.4 ×10⁻⁶ cm/s | 2.7 | – | 200 µM (≈ 72.9 µg/mL) | – | – | 200 mL/min/kg | 183 mL/min/kg | –
O=C(COc1ccc2cc(Oc3ccc(C(F)(F)F)cn3)ccc2n1)N1CCCCC1 | 38.6 ×10⁻⁶ cm/s | – | – | 48 µM (≈ 20.7 µg/mL) | – | – | 917 mL/min/kg | 233 mL/min/kg | –
N#Cc1ccc(-c2ccc3c(ccc(=O)n3CCN3CCCCC3)c2)cc1 | – | – | < 1 µM | – | 8.3 ×10⁻⁶ cm/s | – | 100 mL/min/kg | 33 mL/min/kg | –
N#Cc1ccc(Oc2ccc3nc(OCC(=O)NCC(N)=O)ccc3c2)cc1 | 12.8 ×10⁻⁶ cm/s | 3 | > 30 µM | 0.824 µM (≈ 0.31 µg/mL) | – | – | < 50 mL/min/kg | 33 mL/min/kg | efflux ratio [11]: 14.9
N#Cc1ccc(Oc2ccc3nc(OCC(=O)N4CCNC(=O)C4)ccc3c2)cc1 | 32.1 ×10⁻⁶ cm/s | 3.1 | – | 141 µM (≈ 56.7 µg/mL) | – | – | < 50 mL/min/kg | < 33 mL/min/kg | –
O=C1CN(C(=O)COc2ccc3cc(Oc4ccccn4)ccc3n2)CCN1 | 22 ×10⁻⁶ cm/s | – | 30 µM | 200 µM (≈ 75.7 µg/mL) | – | – | < 65 mL/min/kg | 65 mL/min/kg | –
N#Cc1ccc(Oc2ccc3c(ccc(=O)n3CCN3CCCCC3)c2)cc1 | – | 3.4 | < 1 µM | 140 µM (≈ 52.3 µg/mL) | 3.7 ×10⁻⁶ cm/s | 1.6 µM | 633 mL/min/kg | 150 mL/min/kg | Ct [14]: 3.38 µg/mL; MPE [15]: 53%; Ct [16]: 1.05 µg/mL; Cp [17]: 1270 ng/mL; Cp [18]: 470 ng/mL; Kp uu [19]: 0.45; MPE [20]: 89%; bioavailability [8]: 17%; IC50 [21]: 3.4 µM; MPE [22]: 54%; IC50 [23]: 2.28 µM; clearance [4]: 52.7 mL/min/kg; Cp [24]: 290 ng/mL; IC50 [25]: 0.08 µM; Ct [26]: 0.56 µg/mL
O=C(COc1ccc2cc(Oc3ccccn3)ccc2n1)N1CCCCC1 | 66.9 ×10⁻⁶ cm/s | 3.6 | 30 µM | 156 µM (≈ 56.7 µg/mL) | – | – | 2400 mL/min/kg | 100 mL/min/kg | –
CN1CCN(C(=O)COc2ccc3cc(Oc4ccc(C(F)(F)F)cn4)ccc3n2)CC1 | – | – | – | 200 µM (≈ 89.3 µg/mL) | – | – | 967 mL/min/kg | 100 mL/min/kg | –
N#Cc1ccc(Oc2ccc3nc(OCCN4CCCCC4)ccc3c2)cc1 | – | 3.5 | < 1 µM | – | – | – | 217 mL/min/kg | 50 mL/min/kg | –
O=C1CN(C(=O)COc2ccc3cc(Oc4ccc(C(F)(F)F)cn4)ccc3n2)CCN1 | 44.1 ×10⁻⁶ cm/s | 3.2 | – | 23 µM (≈ 10.3 µg/mL) | – | – | < 61.7 mL/min/kg | < 56.7 mL/min/kg | –
